In paper PMC7144182, “Synthesis, biological evaluation and molecular modelling of 2,4-disubstituted-5-(6-alkylpyridin-2-yl)-1H-imidazoles as ALK5 inhibitors” (Journal of Enzyme Inhibition and Medicinal Chemistry, 2020):
Values joined by “and” are separate entries in the source; they are usually repeats but may differ in a detail not shown here. Equal values may be shown once.

How the values were obtained:
[1] = test system: TGF-β1-induced luciferase reporter activity, HaCaT (3TP-luc) stable cells; test: Cell-based p3TP-luciferase reporter assay; conditions: for % inhibition in luciferase reporter assay: 0.1 µM inhibitor; for p3TP-luciferase activity (% control): 0.1 μM inhibitor, TGF-β1 2 ng/mL, 24 h, mean ± SD of three independent experiments; for IC50: Homo sapiens, HaCaT, read-out: IC50 for p3TP-luciferase
Procedure: To establish HaCaT (3TP-luc) stable cells, cells were seeded on six-well plates. Cells were allowed to adhere overnight and then transfected with the p3TP-luc (neo) expression plasmid using PEI reagent (Sigma Aldrich). Transfected cells were cultured for four weeks in the presence of G418 (500 µg/mL). Several single clones were isolated and measured luciferase activity. The clone showing response to TGF-β1 treatment was used for reporter assay. HaCaT (3TP-luc) stable cells were seeded at 2.5 × 10^4 cells/well in 96-well plate and were allowed to adhere overnight. Cells were concomitantly treated with TGF-β1 (2 ng/mL) and indicated concentrations of ALK5 inhibitors in 0.2% FBS medium and incubated for 24 h at 37 °C in 5% CO2. Cell lysates were prepared using Luciferase Assay System (Promega) according to the manufacturer’s instruction, and luminescence was measured by a luminometer, Micro Lumat Plus (Berthold, Germany).

[2] = target: T1, ALK5 (Homo sapiens, UniProt P36897)
T1 sequence (P36897 34-503): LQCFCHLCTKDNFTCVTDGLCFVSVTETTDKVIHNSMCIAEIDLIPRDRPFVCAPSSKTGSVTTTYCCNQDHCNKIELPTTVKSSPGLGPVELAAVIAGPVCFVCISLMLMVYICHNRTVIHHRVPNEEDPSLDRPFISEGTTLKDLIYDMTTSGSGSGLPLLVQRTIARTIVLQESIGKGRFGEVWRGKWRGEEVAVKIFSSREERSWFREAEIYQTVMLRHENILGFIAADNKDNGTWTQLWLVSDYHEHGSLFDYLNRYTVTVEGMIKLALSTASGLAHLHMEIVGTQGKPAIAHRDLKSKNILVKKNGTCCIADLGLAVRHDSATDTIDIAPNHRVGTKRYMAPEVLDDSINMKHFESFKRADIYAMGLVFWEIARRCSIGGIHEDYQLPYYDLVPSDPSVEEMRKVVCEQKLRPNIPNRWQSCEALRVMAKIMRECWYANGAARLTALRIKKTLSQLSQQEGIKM

[3] = target: p38α (Homo sapiens, UniProt Q16539); test: p38α kinase assay (33PanQinase, ATF2 as substrate); format: biochemical; conditions: for IC50: ATF2 substrate, mean of duplicates
[4] = test system: panel of 28 protein kinases; conditions: panel of 28 protein kinases (19 serine/threonine, 9 tyrosine kinases)
Excerpt: Because ALK5 is a serine/threonine kinase, we chose 19 serine/threonine kinases including ALK5 and an ALK family kinase, ACV-R1 (ALK5, ACV-R1, Aurora-A, ARK5, B-Raf, CK2α1, COT, DAPK1, IRAK4, JNK3, MAPKAPK5, MST4, NEK2, NLK, PAK1, PIM1, PRK1, S6K, SGK1) and 9 tyrosine kinases (ABL1, CSK, FGF-R1, FLT3, IGF1-R, PDGFR-α, SRC, VEGF-R1, ZAP70).

[5] = test system: Caco-2 cells; test: Caco-2 cell permeability assay; format: in vitro ADME; conditions: 100 µM, AP to BL, 2 h; mean ± SD of quadruplicates
Procedure: Caco-2 cells were seeded in Transwell® polycarbonate filter at a density of 8 × 10^4 cells/filter and cultured for 21 days. Culture medium was removed from both apical (AP) and basolateral (BL) chambers of transwell, and the wells were rinsed three times with PBS. AP buffer (HBSS, pH 6.5) containing 10 mM MES and BL buffer (HBSS, pH 7.4) containing 10 mM HEPES were loaded in AP (500 µL) and BL (1500 µL) chambers, respectively, followed by incubation for 30 min at 37 °C. Then, test compound (100 µM) was added to the AP side and incubated for 2 h at 37 °C. After the incubation, BL buffer was collected and analysed using an UV spectrophotometer at a maximum wavelength (wavelength 225–357 nm).
To estimate oral absorption of target compounds, their permeability in a Caco-2 monolayer was evaluated at a concentration of 100 µM (Table 1).

[6] = target: T2, purified human ALK5 kinase domain (Homo sapiens, UniProt P36897); test: ALK5 kinase assay (33PanQinase, casein as substrate); format: biochemical; conditions: for IC50: casein substrate, 1 μM ATP, singlicate (11e: mean of triplicates); for fold less potent than the corresponding 6-methylpyridyl analogue / fold more inhibiting than the respective methylene linker analogue: vs 11a; for fold less potent than the corresponding 6-methylpyridyl analogue: 11e, 16a, 16e respectively; for fold more inhibiting than the corresponding m-CONH2 analogues 16e and 16f: ethylene linker series; for fold more inhibiting than the respective methylene linker analogue: 11b, 11c, 11g respectively
T2 construct: using the purified human ALK5 kinase domain produced in Sf9 insect cells; host or cells: Sf9 insect cells
T2 sequence (P36897 205-495 limits assumed): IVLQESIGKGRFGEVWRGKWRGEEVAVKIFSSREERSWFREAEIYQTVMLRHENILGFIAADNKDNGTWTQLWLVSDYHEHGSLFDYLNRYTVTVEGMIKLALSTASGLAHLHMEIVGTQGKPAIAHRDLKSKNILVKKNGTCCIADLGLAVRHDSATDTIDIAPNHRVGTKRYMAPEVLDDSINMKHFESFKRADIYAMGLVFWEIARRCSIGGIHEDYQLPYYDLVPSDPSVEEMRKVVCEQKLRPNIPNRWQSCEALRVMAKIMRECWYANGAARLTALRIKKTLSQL
Procedure: To evaluate whether these potential inhibitors 7a–c, 11a–h, and 16a–h could inhibit ALK5, a kinase assay was performed using the purified human ALK5 kinase domain produced in Sf9 insect cells and casein as a substrate (Table 1).

[7] = test system: ALK5; conditions: cited from earlier work
[8] = test system: ALK5; conditions: cited from earlier work; remark: listed apart in the source
[9] = rats; cited from earlier work

Chain of p38α (Q16539 whole entry): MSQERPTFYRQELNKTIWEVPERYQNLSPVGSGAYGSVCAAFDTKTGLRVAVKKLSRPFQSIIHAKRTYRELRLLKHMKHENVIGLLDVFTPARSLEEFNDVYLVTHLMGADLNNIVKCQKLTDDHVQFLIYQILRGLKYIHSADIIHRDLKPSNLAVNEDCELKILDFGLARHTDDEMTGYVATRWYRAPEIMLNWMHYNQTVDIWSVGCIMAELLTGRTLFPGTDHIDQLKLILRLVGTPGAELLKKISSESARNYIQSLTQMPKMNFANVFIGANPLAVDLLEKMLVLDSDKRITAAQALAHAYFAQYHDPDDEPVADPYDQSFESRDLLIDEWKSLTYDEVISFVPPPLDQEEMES

Row | SMILES | Caco-2 permeability (%) [5] | IC50 [6] | fold less potent than the corresponding 6-methylpyridyl analogue ([6]; kinase assay) | fold more inhibiting than the respective methylene linker analogue [6] | % inhibition in luciferase reporter assay [1] | p3TP-luciferase activity (% control) [1] | other results
1 | Cc1cccc(-c2[nH]c(Cc3cccc(C(N)=O)c3)nc2-c2ccc3nccnc3c2)n1 [Compound 11e, 3-((5-(6-Methylpyridin-2-yl)-4-(quinoxalin-6-yl)-1H-imidazol-2-yl)methyl)benzamide] | 56% and 56 ± 26.8% | 36 nM |  |  | 92 % inhibition | 8 ± 5.8 % control | IC50 [1]: 19.6 nM; fold higher potency compared to galunisertib ([2]; ALK5 kinase assay): 6.6 fold; IC50 ([2]; read-out: IC50 for ALK5, GSK3 (14–27) substrate, 1 μM ATP, mean of duplicates): 13 nM; Selectivity index (IC50 for p38α/IC50 for ALK5) [3]: 22; fold less selective against p38α than vactosertib [3]: 6.2 fold; fold more selective against p38α than galunisertib [3]: 5.5 fold; IC50 [3]: 288 nM; Selectivity indices against all the kinases tested [4]: > 100
2 | CC(C)c1cccc(-c2[nH]c(Cc3cccc(C(N)=O)c3)nc2-c2ccc3nccnc3c2)n1 [Compound 11g, 3-((5-(6-Isopropylpyridin-2-yl)-4-(quinoxalin-6-yl)-1H-imidazol-2-yl)methyl)benzamide] | 34 ± 15.6% | 1250 nM | 13–35 fold |  |  | 69 ± 6.7 % control | 
3 | Cc1cccc(-c2[nH]c(CCc3cccc(C(N)=O)c3)nc2-c2ccc3nccnc3c2)n1 [Compound 16e, 3-(2-(5-(6-Methylpyridin-2-yl)-4-(quinoxalin-6-yl)-1H-imidazol-2-yl)ethyl)benzamide] | 21 ± 9.5% | 47 nM |  |  | 93 % inhibition | 7 ± 0.7 % control | 
4 | Cc1cccc(-c2nn3c(c2-c2ccnc4ccc(C(N)=O)cc24)CCC3)n1 [Galunisertib (1), reference compound] |  |  |  |  |  |  | IC50 [1]: > 100 nM; IC50 [3]: 320 nM
5 | Cc1cccc(-c2[nH]c(CNc3ccccc3F)nc2-c2ccc3ncnn3c2)n1 [Vactosertib (2), N-((4-([1,2,4]triazolo[1,5-a]pyridin-6-yl)-5-(6-methylpyridin-2-yl)-1H-imidazol-2-yl)methyl)-2-fluoroaniline] |  |  |  |  |  |  | ALK5 inhibitory activity in a kinase assay [7]: subnanomolar; ALK5 inhibitory activity in a cell-based luciferase reporter assay [8]: subnanomolar; oral bioavailability [9]: moderate

Second part, led by results:

Row | Caco-2 permeability (%) [5] | IC50 [6] | fold less potent than the corresponding 6-methylpyridyl analogue ([6]; kinase assay) | fold more inhibiting than the respective methylene linker analogue [6] | SMILES | % inhibition in luciferase reporter assay [1] | p3TP-luciferase activity (% control) [1] | other results
6 | 45 ± 5.3% | 30 nM |  | 2.9 fold | Cc1cccc(-c2[nH]c(CCc3ccc(C(N)=O)cc3)nc2-c2ccc3nccnc3c2)n1 [Compound 16a, 4-(2-(5-(6-Methylpyridin-2-yl)-4-(quinoxalin-6-yl)-1H-imidazol-2-yl)ethyl)benzamide] | 85 % inhibition | 15 ± 8.2 % control | fold more potent than the benzo[1,3]dioxol-5-yl analogue ([6]; 11a vs 7a, 16a vs 7b, kinase assay): 3.1 fold; fold more inhibiting than the corresponding m-CONH2 analogues 16e and 16f [6]: 1.6 fold
7 | 25 ± 3.7% | 41 nM | 1.4 fold | 2.7 fold | CCc1cccc(-c2[nH]c(CCc3ccc(C(N)=O)cc3)nc2-c2ccc3nccnc3c2)n1 [Compound 16b, 4-(2-(5-(6-Ethylpyridin-2-yl)-4-(quinoxalin-6-yl)-1H-imidazol-2-yl)ethyl)benzamide] | 84 % inhibition | 16 ± 8.4 % control | fold more inhibiting than the corresponding m-CONH2 analogues 16e and 16f [6]: 1.6 fold
8 | 23 ± 3.1% | 653 nM | 13–35 fold | 3.4 fold | CC(C)c1cccc(-c2[nH]c(CCc3ccc(C(N)=O)cc3)nc2-c2ccc3nccnc3c2)n1 [Compound 16c, 4-(2-(5-(6-Isopropylpyridin-2-yl)-4-(quinoxalin-6-yl)-1H-imidazol-2-yl)ethyl)benzamide] |  | 85 ± 38.9 % control | 
9 | 24 ± 1.9% | 2380 nM |  |  | CCCCc1cccc(-c2[nH]c(CCc3ccc(C(N)=O)cc3)nc2-c2ccc3nccnc3c2)n1 [Compound 16d, 4-(2-(5-(6-n-Butylpyridin-2-yl)-4-(quinoxalin-6-yl)-1H-imidazol-2-yl)ethyl)benzamide] |  | 76 ± 5.7 % control | 
10 | 6% and 6 ± 4.1% | 66 nM | 1.4 fold |  | CCc1cccc(-c2[nH]c(CCc3cccc(C(N)=O)c3)nc2-c2ccc3nccnc3c2)n1 [Compound 16f, 3-(2-(5-(6-Ethylpyridin-2-yl)-4-(quinoxalin-6-yl)-1H-imidazol-2-yl)ethyl)benzamide] |  | 56 ± 14.6 % control | 
11 | 0% | 593 nM | 13–35 fold | 2.1 fold | CC(C)c1cccc(-c2[nH]c(CCc3cccc(C(N)=O)c3)nc2-c2ccc3nccnc3c2)n1 [Compound 16g, 3-(2-(5-(6-Isopropylpyridin-2-yl)-4-(quinoxalin-6-yl)-1H-imidazol-2-yl)ethyl)benzamide] |  | 48 ± 41.8 % control | 
12 | 0% | 2880 nM |  |  | CCCCc1cccc(-c2[nH]c(CCc3cccc(C(N)=O)c3)nc2-c2ccc3nccnc3c2)n1 [Compound 16h, 3-(2-(5-(6-n-Butylpyridin-2-yl)-4-(quinoxalin-6-yl)-1H-imidazol-2-yl)ethyl)benzamide] |  | 92 ± 10.4 % control | 
